Data from patent US20140087003A1, “METHOD FOR TREATING VENOMOUS BITES AND STINGS” (priority 2012, published 2014).

Assay: pH of the solution
Format: physicochemical

Row | SMILES | pH of strong basic solutions used as high pH controls
1 | [K+].[OH-] [potassium hydroxide] | 14
2 | [Na+].[OH-] [sodium hydroxide] | 14
